Key:
[1] = tested on: Dextran Sodium Sulphate (DSS) induced colitis; experiment: DSS induced colitis in mice, changes in body weight; type: in vivo, C57BL/6 mice; conditions: CBD 50 mg/kg, Spilanthol 10 mg/kg, gavage daily for 8 days; for prevention of the weight loss effect (improvement in outcome vs vehicle): day 9; for average loss of baseline body weight: measured on day 9, vehicle 14.6%
Experimental: (§1) Colitis was induced in 10 weeks old female C57BL/6 mice (Harlan laboratories, Israel) by feeding them for 8 days with 1.5% (w/vol) DSS in the drinking water (Peer et al. Science, 319: 627-630, 2008; Dearling et al. IBD 2010; Dearling et al. IBD 2016), Kedmi et al. Nature Nanotechnology, 2018.
(§2) Mice were divided into 4 study groups (10 mice in each group): 1. Vehicle treatment group; 2. CBD 50 mg/kg treatment group; 3. Spilanthol 10 mg/kg treatment group; and 4. CBD 50 mg/kg+Spilanthol 10 mg/kg combination treatment group (herein “test combination group”). Treatment was given via gavage daily for 8 days. An additional group of 10 healthy mice served as a […] control arm. Body weight was monitored every other day. At the end of day 9 the animals were sacrificed and colon TNFα levels as well as the total length of the length of colon from the cecum to anus were assayed.
(§3) The following readouts were measured in the study as indicators for assessing the amelioration and the therapeutic efficacy of the different treatments: 1. Changes in body weight, 2. Colon's TNFα levels as measured by ELISA kits (R&D Systems, USA), 3. Total length of colon from cecum to anus, as measured by a blinded veterinary doctor.

TNFα = experiment: DSS induced colitis in mice, colon TNFα levels by ELISA; type: in vivo, C57BL/6 mice; conditions: for average colon TNFα level: CBD 50 mg/kg, Spilanthol 10 mg/kg, gavage daily 8 days, day 9, healthy 486, vehicle 1,116 pg/ml; for reduction in the TNFα increase effect / reduction of colon TNFα level comparing to vehicle / increase of colon TNFα level from baseline (healthy mice): same doses; for reduction in the TNFα increase effect / reduction of colon TNFα level comparing to vehicle: day 9; for increase of colon TNFα level from baseline (healthy mice): vehicle 130% increase
Experimental: as §1, §2, §3

[2] = tested on: Dextran Sodium Sulphate (DSS) induced colitis; experiment: DSS induced colitis in mice, total length of colon from cecum to anus; type: in vivo, C57BL/6 mice; conditions: for average colon length: CBD 50 mg/kg, Spilanthol 10 mg/kg, gavage daily 8 days, day 9, healthy 7.66, vehicle 4.9 cm; for decrease of colon length from baseline (healthy mice): vehicle 36% decrease
Experimental: as §1, §2, §3

[3] = tested on: alanine aminotransferase (ALT); experiment: MCD diet induced NASH in mice, ALT activity in serum; type: in vivo, FVB/NJ mice; conditions: CBD 50 mg/kg, Spilanthol 10 mg/kg, gavage daily for 21 days, MCD elevation 515 SFU/ml
Text: (§4) MCD diet in mice is considered a common gold standard model for the development of NASH. In this model, the absence of methionine leads to hepatic injury, inflammation, and fibrosis, and the deficiency of choline leads to macrovesicular steatosis. The MCD diet mouse model has been used in several studies to induce NASH with or without fibrosis.
NASH was induced in 12 weeks old Male FVB/NJ mice fed with the MCD diet for 21 days. Mice were divided into 5 study groups (12 mice in each group): • 1. Healthy animal group—No induction of NASH by MCD diet. • 2. MCD diet group—with no treatment by either CBD or Spilanthol. • 3. CBD alone group—MCD diet+daily CBD 50 mg/kg treatment. • 4. Spilanthol alone group—MCD diet+daily Spilanthol 10 mg/kg treatment. • 5. […]
(§5) Treatment was given via gavage daily for 21 days. […] Body weight was monitored every other day. At the end of day 21 the animals were sacrificed, and study readouts as described below were measured.
(§6) The following readouts were measured in the study as indicators for the therapeutic efficacy of the different treatments: • 1. […] Study Readouts
1. Liver enzyme activity levels in serum: The average level of alanine aminotransferase (ALT) activity in the serum of the mice in the different treatment groups was measured using a biochemical autoanalyzer following 21 days of the. […]

[4] = tested on: aspartate aminotransferase (AST); experiment: MCD diet induced NASH in mice, AST activity in serum; type: in vivo, FVB/NJ mice; conditions: CBD 50 mg/kg, Spilanthol 10 mg/kg, gavage daily for 21 days
Text: as §4
(§7) NASH was induced in 12 weeks old Male FVB/NJ mice fed with the MCD diet for 21 days. Mice were divided into 5 study groups (12 mice in each group): • 1. Healthy animal group—No induction of NASH by MCD diet. • 2. MCD diet group—with no treatment by either CBD or Spilanthol. • 3. CBD alone group—MCD diet+daily CBD 50 mg/kg treatment. • 4. Spilanthol alone group—MCD diet+daily Spilanthol 10 mg/kg treatment. • 5. Combination treatment group—MCD diet+daily CBD 50 mg/kg and Spilanthol 10 mg/kg treatment.
Treatment was given via gavage daily for 21 days. That is, the MCD diet and treatment were initiated simultaneously, so as to examine the treatments' ability both to prevent and treat NASH. Body weight was monitored every other day. At the end of day 21 the animals were sacrificed, and study readouts as described below were measured.
The following readouts were measured in the study as indicators for the therapeutic efficacy of the different treatments: • 1. 1. Liver enzymes activity levels in the serum (ALT and AST). • 2. 2. […] Study Readouts […]

IL-6 = experiment: MCD diet induced NASH in mice, IL-6 serum levels by ELISA; type: in vivo, FVB/NJ mice; conditions: same doses, 21 days, healthy 88, untreated dieted 2,912 pg/ml
Text: as §4, §7, §5, §6
2. […] Pro-inflammatory cytokine IL-6 levels were also measured in the serum of the mice at the end of the 21 days of the study using a commercial ELISA kit (R&D systems, USA). […]

[5] = tested on: NASH induced by a methionine and choline deficient (MCD) diet; experiment: MCD diet induced NASH in mice, liver weight; type: in vivo, FVB/NJ mice; conditions: same doses, 21 days
Text: as §4, §7, §5, §6
3. […] The total liver weight was also measured for all mice following the 21 days of the study. […] The average liver weight as measured in the not dieted mice group (healthy) was 1.22 grams. […]

ICR mice = conditions: acute toxicity; cited from earlier work
[6] = tested on: human HEK293 kidney cells; conditions: cited from earlier work
[7] = tested on: nitric oxide (NO) production; conditions: RAW 264.7 murine macrophages; cited from earlier work
Ames test = conditions: cited from earlier work
[8] = tested on: RAW 264.7 murine macrophages; conditions: concentrations up to 40 μg/ml; cited from earlier work

Compound	prevention of the weight loss effect (improvement in outcome vs vehicle) [1] [%]	average loss of baseline body weight [1] [%]	average colon TNFα level (TNFα) [pg/mL]	reduction in the TNFα increase effect (TNFα) [%]	reduction of colon TNFα level comparing to vehicle (TNFα) [pg/mL]	increase of colon TNFα level from baseline (healthy mice) (TNFα) [%]	average colon length [2] [cm]	decrease of colon length from baseline (healthy mice) ([2]; same doses) [%]	improvement in outcome (colon shortening effect) ([2]; same doses, vs vehicle) [%]	reduction of the elevated ALT serum activity levels [3]	reduction in AST enzyme activity levels in serum [4]	reduction of the elevated IL-6 serum levels (IL-6)	reduction in liver weight loss [5]	median lethal dose (LD50) (ICR mice) [mg/kg]	cytotoxic effect, mean inhibitory concentration (IC50) [6] [µg/mL]	effect on nitric oxide (NO) production [7]	mutagenic effects (Ames test; Ames test)	antimutagenic effects (Ames test; at 25 and 50 μg/ml)	cytotoxic effects [8]	reduction of the colon shortening effect ([2]; same doses, vs vehicle) [cm]
C/C=C/C=C\CC/C=C/C(=O)NCC(C)C [Spilanthol, (2E,6Z,8E)-N-isobutyl-2,6,8-decatrienamide]	0	14.6	980	21.5	136	101	4.9	36	0	no effect	neither CBD alone, nor Spilanthol alone has any significant effect	ineffective	no effect	113	260	stimulatory effect	No mutagenic effects	antimutagenic effects of affinin were observed	No cytotoxic effects	
C=C(C)C1CCC(C)=CC1c1c(O)cc(CCCCC)cc1O (stereo not drawn) [CBD, 2-[3-methyl-6-(1-methylethenyl)-2-cyclohexen-1-yl]-5-pentyl-1,3-benzenediol]	44	8.2	928	30	188	91	5.31	30.7	14.9	16.5%	neither CBD alone, nor Spilanthol alone has any significant effect	13.5%	38.3%							0.41
